Experimental data reported in PubChem BioAssay AID248 (DTP/NCI, 2004).
“And” between values parts separate entries of the source, which are not always exact repeats. Equal entries are not always repeated. Inconclusive results and toxic doses are left out.

System: L1210 leukemia ip in BDF1 mice, survival T/C
Experiment: NCI In Vivo Anticancer Drug Screen. Data for tumor model L1210 Leukemia (intraperitoneal) in B6D2F1 (BDF1) mice
Settings: endpoint: mean survival time, higher = longer survival
Method in brief: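 Ratio derived from survival: compound-dosed mice over vehicle-dosed mice, all bearing a transplantable tumor.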

[1] = dose: 100.0 mg/kg/injection, schedule: Q01DX001 (ip), vehicle: saline
[2] = dose: 200.0 mg/kg/injection, schedule: Q01DX001 (ip), vehicle: saline
[3] = dose: 400.0 mg/kg/injection, schedule: Q01DX001 (ip), vehicle: saline
[4] = dose: 50.0 mg/kg/injection, schedule: Q01DX009 (ip), vehicle: Klucel (hydroxypropylcellulose) (HPC)
[5] = dose: 100.0 mg/kg/injection, schedule: Q01DX009 (ip), vehicle: Klucel (hydroxypropylcellulose) (HPC)
[6] = dose: 200.0 mg/kg/injection, schedule: Q01DX009 (ip), vehicle: Klucel (hydroxypropylcellulose) (HPC)
[7] = dose: 100.0 mg/kg/injection, schedule: Q04DX003 (ip), vehicle: Klucel (hydroxypropylcellulose) (HPC)
[8] = dose: 200.0 mg/kg/injection, schedule: Q04DX003 (ip), vehicle: Klucel (hydroxypropylcellulose) (HPC)
[9] = dose: 400.0 mg/kg/injection, schedule: Q04DX003 (ip), vehicle: Klucel (hydroxypropylcellulose) (HPC)
[10] = dose: 12.5 mg/kg/injection, schedule: Q01DX009 (ip), vehicle: Klucel (hydroxypropylcellulose) (HPC)
[11] = dose: 25.0 mg/kg/injection, schedule: Q01DX009 (ip), vehicle: Klucel (hydroxypropylcellulose) (HPC)
[12] = dose: 12.5 mg/kg/injection, schedule: Q04DX002 (ip), vehicle: saline
[13] = dose: 25.0 mg/kg/injection, schedule: Q04DX002 (ip), vehicle: saline
[14] = dose: 100.0 mg/kg/injection, schedule: Q01DX001 (ip), vehicle: carboxymethylcellulose (CMC)
[15] = dose: 200.0 mg/kg/injection, schedule: Q01DX001 (ip), vehicle: carboxymethylcellulose (CMC)
[16] = dose: 400.0 mg/kg/injection, schedule: Q01DX001 (ip), vehicle: carboxymethylcellulose (CMC)
[17] = dose: 400.0 mg/kg/injection, schedule: Q01DX009 (ip), vehicle: Klucel (hydroxypropylcellulose) (HPC)
[18] = dose: 25.0 mg/kg/injection, schedule: Q04DX003 (ip), vehicle: Klucel (hydroxypropylcellulose) (HPC)
[19] = dose: 100.0 mg/kg/injection, schedule: Q04DX003 (ip), vehicle: saline with Tween-80
[20] = dose: 200.0 mg/kg/injection, schedule: Q04DX003 (ip), vehicle: saline with Tween-80
[21] = dose: 400.0 mg/kg/injection, schedule: Q04DX003 (ip), vehicle: saline with Tween-80
[22] = dose: 100.0 mg/kg/injection, schedule: Q01DX001 (ip), vehicle: Klucel (hydroxypropylcellulose) (HPC)

Structure (SMILES): COc1ccc2c3c1OC1C4(OC)CCC5(c6c(O)ccc(O)c64)C(C2)N(C)CCC315 (configuration not stated)
- T/C [1]: 86 % of control
- T/C [2]: 96 % of control
- T/C [3]: 94 % of control

Structure (SMILES): COc1ccc([N+](=O)[O-])cc1NC(=O)Nc1ccc(N(C)C(C)=O)cc1
- T/C [4]: 105 % of control
- T/C [5]: 111 % of control
- T/C [6]: 101 % of control

Structure (SMILES): CN=C(NC)NCc1ccccc1
- T/C (dose: 50.0 mg/kg/injection, schedule: Q01DX001 (ip), vehicle: saline): 95 % of control
- T/C [1]: 97 % of control

Structure (SMILES): O=c1c([N+](=O)[O-])cc([N+](=O)[O-])cn1O
- T/C [7]: 100 % of control
- T/C [8]: 100 % of control
- T/C [9]: 90 % of control

Structure (SMILES): c1ccc([P+](C2=NNCC2)(c2ccccc2)c2ccccc2)cc1
- T/C (dose: 6.25 mg/kg/injection, schedule: Q01DX009 (ip), vehicle: Klucel (hydroxypropylcellulose) (HPC)): 105 % of control
- T/C [10]: 118 % of control
- T/C [11]: 105 % of control and 109 % of control

Structure (SMILES): O=C1C(=O)c2ccccc2C(O)=C1c1ccccc1
- T/C (dose: 50.0 mg/kg/injection, schedule: Q01DX001 (ip), vehicle: carboxymethylcellulose (CMC)): 114 % of control

Structure (SMILES): CC(O)C(N)C(=O)O (configuration not stated)
- T/C [12]: 103 % of control and 97 % of control
- T/C (dose: 18.75 mg/kg/injection, schedule: Q04DX003 (ip), vehicle: saline): 101 % of control
- T/C [13]: 107 % of control
- T/C (dose: 37.5 mg/kg/injection, schedule: Q04DX003 (ip), vehicle: saline): 98 % of control
- T/C (dose: 50.0 mg/kg/injection, schedule: Q04DX002 (ip), vehicle: saline): 107 % of control
- T/C (dose: 75.0 mg/kg/injection, schedule: Q04DX003 (ip), vehicle: saline): 108 % of control and 114 % of control
- T/C [14]: 87 % of control
- T/C (dose: 100.0 mg/kg/injection, schedule: Q04DX002 (ip), vehicle: saline): 107 % of control
- T/C (dose: 150.0 mg/kg/injection, schedule: Q04DX003 (ip), vehicle: saline): 108 % of control
- T/C [15]: 91 % of control
- T/C [6]: 91 % of control
- T/C (dose: 200.0 mg/kg/injection, schedule: Q04DX002 (ip), vehicle: saline): 93 % of control
- T/C (dose: 300.0 mg/kg/injection, schedule: Q04DX003 (ip), vehicle: saline): 94 % of control
- T/C [16]: 89 % of control
- T/C (dose: 400.0 mg/kg/injection, schedule: Q04DX002 (ip), vehicle: saline): 107 % of control

Structure (SMILES): O=C(NCCCCCCNC(=O)Nc1ccccc1F)Nc1ccccc1F
- T/C [5]: 100 % of control
- T/C [6]: 89 % of control
- T/C [17]: 92 % of control

Structure (SMILES): CCO/C([O-])=C/[P+](c1ccccc1)(c1ccccc1)c1ccccc1
- T/C [10]: 103 % of control
- T/C [11]: 106 % of control
- T/C [18]: 103 % of control
- T/C [4]: 103 % of control
- T/C (dose: 50.0 mg/kg/injection, schedule: Q04DX003 (ip), vehicle: Klucel (hydroxypropylcellulose) (HPC)): 103 % of control
- T/C [7]: 96 % of control

Structure (SMILES): CC(=O)Nc1ccc(/C=N\Nc2ccccn2)cc1
- T/C [1]: 89 % of control
- T/C [2]: 100 % of control
- T/C [3]: 93 % of control

Structure (SMILES): Cn1nc([N+](=O)[O-])sc1=N
- T/C [7]: 98 % of control
- T/C [8]: 98 % of control
- T/C [9]: 101 % of control

Structure (SMILES): NC(=O)c1cc(C(=O)O)ccc1N(N)O
- T/C [19]: 101 % of control
- T/C [20]: 101 % of control
- T/C [21]: 90 % of control

Structure (SMILES): O=C(/C(=C/c1ccc(F)cc1)c1ccccc1)c1ccc(O)cc1
- T/C [14]: 92 % of control
- T/C [15]: 110 % of control
- T/C [16]: 94 % of control

Structure (SMILES): Cc1cc(C)c(I)c(C(=O)O)c1
- T/C [19]: 95 % of control
- T/C [20]: 104 % of control
- T/C [21]: 104 % of control

Structure (SMILES): CC1NCCCNCCCNC(C)c2cccc1n2 (configuration not stated)
- T/C [12]: 92 % of control
- T/C [13]: 89 % of control

Structure (SMILES): COc1cccc(/C2=C/CCCCCC2)c1
- T/C (dose: 50.0 mg/kg/injection, schedule: Q01DX009 (ip), vehicle: acetone): 95 % of control
- T/C (dose: 100.0 mg/kg/injection, schedule: Q01DX009 (ip), vehicle: acetone): 107 % of control
- T/C (dose: 100.0 mg/kg/injection, schedule: Q04DX003 (ip), vehicle: acetone): 100 % of control
- T/C (dose: 200.0 mg/kg/injection, schedule: Q01DX009 (ip), vehicle: acetone): 93 % of control
- T/C (dose: 200.0 mg/kg/injection, schedule: Q04DX003 (ip), vehicle: acetone): 105 % of control
- T/C (dose: 400.0 mg/kg/injection, schedule: Q04DX003 (ip), vehicle: acetone): 91 % of control

Structure (SMILES): CN(C)N=Nc1ccc2[nH]ncc2c1
- T/C (dose: 14.5 mg/kg/injection, schedule: Q01DX009 (ip), vehicle: Klucel (hydroxypropylcellulose) (HPC)): 123 % of control
- T/C (dose: 16.5 mg/kg/injection, schedule: Q04DX003 (ip), vehicle: Klucel (hydroxypropylcellulose) (HPC)): 100 % of control
- T/C [11]: 114 % of control
- T/C [18]: 107 % of control
- T/C (dose: 33.0 mg/kg/injection, schedule: Q01DX009 (ip), vehicle: Klucel (hydroxypropylcellulose) (HPC)): 152 % of control
- T/C (dose: 37.5 mg/kg/injection, schedule: Q04DX003 (ip), vehicle: Klucel (hydroxypropylcellulose) (HPC)): 117 % of control
- T/C [4]: 119 % of control
- T/C [22]: 111 % of control

Structure (SMILES): Cc1ccc(S(=O)(=O)n2cc[nH]c2=O)cc1
- T/C [22]: 100 % of control
- T/C (dose: 200.0 mg/kg/injection, schedule: Q01DX001 (ip), vehicle: Klucel (hydroxypropylcellulose) (HPC)): 100 % of control
- T/C (dose: 400.0 mg/kg/injection, schedule: Q01DX001 (ip), vehicle: Klucel (hydroxypropylcellulose) (HPC)): 105 % of control

Structure (SMILES): CCCCCC[C@@H](O)C/C=C\CCCCCCCC(=O)OC
- T/C [1]: 97 % of control
- T/C [2]: 97 % of control
- T/C [3]: 103 % of control

Structure (SMILES): CC1CC(C)(C)NC(=O)O1 (configuration not stated)
- T/C (dose: 25.0 mg/kg/injection, schedule: Q01DX009 (ip), vehicle: other): 93 % of control
- T/C (dose: 25.0 mg/kg/injection, schedule: Q04DX003 (ip), vehicle: other): 90 % of control
- T/C (dose: 50.0 mg/kg/injection, schedule: Q01DX009 (ip), vehicle: other): 92 % of control
- T/C (dose: 50.0 mg/kg/injection, schedule: Q04DX003 (ip), vehicle: other): 89 % of control
- T/C (dose: 100.0 mg/kg/injection, schedule: Q01DX001 (ip), vehicle: other): 103 % of control
- T/C (dose: 100.0 mg/kg/injection, schedule: Q01DX009 (ip), vehicle: other): 92 % of control
- T/C (dose: 100.0 mg/kg/injection, schedule: Q04DX003 (ip), vehicle: other): 90 % of control

Structure (SMILES): CSc1nsc(SC)c1C#N
- T/C [5]: 103 % of control
- T/C [6]: 97 % of control
- T/C [17]: 92 % of control

Structure (SMILES): CCOC(=O)CCSCC(C)(C)C(=O)OCC
- T/C (dose: 100.0 mg/kg/injection, schedule: Q04DX003 (ip), vehicle: saline): 105 % of control
- T/C (dose: 200.0 mg/kg/injection, schedule: Q04DX003 (ip), vehicle: saline): 105 % of control
- T/C (dose: 400.0 mg/kg/injection, schedule: Q04DX003 (ip), vehicle: saline): 103 % of control

Structure (SMILES): Oc1cccc2ccc(Cl)nc12
- T/C (dose: 75.0 mg/kg/injection, schedule: Q01DX001 (ip), vehicle: carboxymethylcellulose (CMC)): 97 % of control
- T/C (dose: 150.0 mg/kg/injection, schedule: Q01DX001 (ip), vehicle: carboxymethylcellulose (CMC)): 101 % of control
- T/C (dose: 300.0 mg/kg/injection, schedule: Q01DX001 (ip), vehicle: carboxymethylcellulose (CMC)): 97 % of control

Structure (SMILES): CNc1nc2ccccc2n1C1OC(CO)C(O)C1O (configuration not stated)
- T/C [1]: 95 % of control
- T/C [2]: 98 % of control
- T/C [3]: 98 % of control

Structure (SMILES): CSc1nc(Cl)cc2c1ncn2C1OC(CO)C(O)C1O (configuration not stated)
- T/C (dose: 100.0 mg/kg/injection, schedule: Q01DX005 (ip), vehicle: saline): 100 % of control
- T/C (dose: 200.0 mg/kg/injection, schedule: Q01DX005 (ip), vehicle: saline): 100 % of control
